SMILES strings stand for the structures.

The values below come from US20110082130A1 (LIGAND PHARMACEUTICALS, INC., priority 2006, published 2011).

For the first assay, the target named is T1, chimeric human H3 receptor (Homo sapiens, UniProt Q9Y5N1).
T1 construct: made in house; host or cells: Sf9 insect cells (baculovirus); P2 membrane preparation
T1 sequence (Q9Y5N1 with tags, fused parts or gaps): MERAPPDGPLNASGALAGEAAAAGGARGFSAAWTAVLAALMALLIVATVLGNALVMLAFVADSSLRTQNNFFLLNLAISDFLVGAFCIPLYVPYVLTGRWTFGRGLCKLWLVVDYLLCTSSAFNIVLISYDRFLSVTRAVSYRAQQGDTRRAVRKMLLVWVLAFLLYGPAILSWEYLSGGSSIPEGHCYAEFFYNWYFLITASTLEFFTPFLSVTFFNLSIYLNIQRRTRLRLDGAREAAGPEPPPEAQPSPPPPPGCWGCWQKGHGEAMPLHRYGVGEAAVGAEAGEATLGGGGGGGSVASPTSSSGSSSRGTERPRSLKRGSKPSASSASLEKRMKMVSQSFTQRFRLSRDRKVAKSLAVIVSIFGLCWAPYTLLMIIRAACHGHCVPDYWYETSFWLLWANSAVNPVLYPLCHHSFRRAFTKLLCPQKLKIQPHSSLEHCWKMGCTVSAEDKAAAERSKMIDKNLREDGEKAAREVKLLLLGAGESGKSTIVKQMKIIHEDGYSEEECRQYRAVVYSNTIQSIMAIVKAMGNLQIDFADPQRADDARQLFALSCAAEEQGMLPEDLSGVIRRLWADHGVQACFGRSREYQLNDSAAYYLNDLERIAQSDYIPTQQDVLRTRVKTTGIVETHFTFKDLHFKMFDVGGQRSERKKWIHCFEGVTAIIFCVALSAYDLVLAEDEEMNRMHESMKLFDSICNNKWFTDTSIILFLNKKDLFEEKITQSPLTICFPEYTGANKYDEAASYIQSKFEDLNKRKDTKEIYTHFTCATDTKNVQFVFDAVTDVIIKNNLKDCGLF
The assay is described as follows: Chimeric human H3 receptor screening GTP binding assay (inhibition of histamine-stimulated GTP-gamma35S binding, Example 8). As to conditions: 4 μM of the compound, 1 μM histamine, "†" in Ki of Table II, read-out: percent inhibition of the signal obtained with 1 μM histamine. The assay is classed as biochemical. As for the experimental part:
This Example illustrates a representative screening assay for evaluating inhibition of histamine-stimulated GTP-gamma^35S binding. Such GTP binding activity can be used to identify H3 antagonists and inverse agonists. A compound analyzed in this assay is referred to herein as a “test compound,” and the initial identification of antagonists and inverse agonists is performed using a test compound concentration of 4 μM.
Four independent baculoviral stocks (one directing the expression of the chimeric human H3 receptor and three directing the expression of each of the three subunits of a heterotrimeric G-protein) are used to infect a culture of Sf9 cells as described above. P2 membranes are prepared as described above, and are resuspended by Dounce homogenization (tight pestle) in GTP binding assay buffer (50 mM Tris pH 7.4, 120 mM NaCl, 5 mM MgCl2, 2 mM EGTA, 1 mg/ml BSA, 0.2 mg/ml bacitracin, 0.02 mg/ml aprotinin, 0.01 mg/ml saponin, 10 μM GDP) and added to assay tubes at a concentration of 35 μg protein/reaction tube. Non-radiolabeled test compounds are added to separate reactions at a concentration of 4 μM along with 1 μM histamine (agonist). Reactions are initiated by the addition of […] GTP-gamma^35S with a final assay volume of 0.20 ml.
After a 60-min incubation at room temperature, reactions are terminated by vacuum filtration over GF/C filters (pre-soaked in 50 mM Tris pH 7.4, 120 mM NaCl plus 0.1% BSA) followed by washing with ice-cold buffer (50 mM Tris pH 7.4, 120 mM NaCl). The amount of receptor-bound (and thereby membrane-bound) GTP-gamma^35S is determined by measuring the bound radioactivity, preferably by liquid scintillation spectrometry of the washed filters. Non-specific binding is determined using 10 uM GTP-gammaS and typically represents less than 5 percent of total binding. After subtraction of non-specific binding, data is expressed as percent inhibition of 1 μM histamine signal.
Neutral antagonists are those test compounds that reduce the histamine-stimulated GTP binding activity towards, but not below, baseline levels. In contrast, in the absence of added histamine, inverse agonists reduce the GTP binding activity of the receptor-containing membranes below baseline. Any test compound that elevates GTP binding activity above baseline in the absence of added histamine in this assay is defined as having agonist activity.
As for `O=C(CN1CCc2cc(-c3ccccc3F)ccc2C1)N1CCN(C2CCC2)CC1` [Compound 414, 2-[2-(4-cyclobutylpiperazin-1-yl)-2-oxoethyl]-6-(2-fluorophenyl)-1,2,3,4-tetrahydroisoquinoline], the inhibition (usually how much of the control response was suppressed) at 4 µM is not below 90%. Same read-out and setting: in the case of `CCc1cccc(-c2ccc3c(c2)CCN(CC(=O)N2CCN(C4CCCCC4)CC2)C3)c1` [Compound 469, 2-[2-(4-cyclohexylpiperazin-1-yl)-2-oxoethyl]-6-(3-ethylphenyl)-1,2,3,4-tetrahydroisoquinoline] it was not below 90%.

For the compound `O=C(CN1CCc2cc(-c3ccc4ccccc4c3)ccc2C1)N1CCN(C2CCCCC2)CC1` [Compound 418, 2-[2-(4-cyclohexylpiperazin-1-yl)-2-oxoethyl]-6-(2-naphthyl)-1,2,3,4-tetrahydroisoquinoline], the inhibition at 4 µM is not below 90%.

Consider `Cc1ccc(-c2ccc3c(c2)CCN(CC(=O)N2CCN(C4CCCC4)CC2)C3)c(F)c1` [Compound 421, 2-[2-(4-cyclopentylpiperazin-1-yl)-2-oxoethyl]-6-(2-fluoro-4-methylphenyl)-1,2,3,4-tetrahydroisoquinoline], for which the inhibition at 4 µM is not below 90%. On the same count and under the same terms, in the case of `Cc1ccc(-c2ccc3c(c2)CCN(CC(=O)N2CCN(C4CCCC4)CC2)C3)cc1` [Compound 436, 2-[2-(4-cyclopentylpiperazin-1-yl)-2-oxoethyl]-6-(4-methylphenyl)-1,2,3,4-tetrahydroisoquinoline] it was not below 90%; in that of `O=C(CN1CCc2cc(-c3ccc(OC(F)(F)F)cc3)ccc2C1)N1CCN(C2CCCC2)CC1` [Compound 479, 2-[2-(4-cyclopentylpiperazin-1-yl)-2-oxoethyl]-6-[4-(trifluoromethoxy)phenyl]-1,2,3,4-tetrahydroisoquinoline], not below 90%. Still for that read-out and setting: in the case of `CCCCc1ccc(-c2ccc3c(c2)CCN(CC(=O)N2CCN(C4CCC4)CC2)C3)cc1` [Compound 451, 6-(4-butylphenyl)-2-[2-(4-cyclobutylpiperazin-1-yl)-2-oxoethyl]-1,2,3,4-tetrahydroisoquinoline] it was not below 90%; in that of `CCCCc1ccc(-c2ccc3c(c2)CCN(CC(=O)N2CCN(C4CCCCC4)CC2)C3)cc1` [Compound 453, 6-(4-butylphenyl)-2-[2-(4-cyclohexylpiperazin-1-yl)-2-oxoethyl]-1,2,3,4-tetrahydroisoquinoline], not below 90%.

Staying with this assay, now noted: Table II "Ki", symbol †, 4 μM of the compound, 1 μM histamine, read-out: percent inhibition of the signal obtained with 1 μM histamine.
Regarding `COc1ccc(-c2ccc3c(c2)CCN(CC(=O)N2CCN(C4CCCCC4)CC2)C3)cc1F` [Compound 504, 2-[2-(4-cyclohexylpiperazin-1-yl)-2-oxoethyl]-6-(3-fluoro-4-methoxyphenyl)-1,2,3,4-tetrahydroisoquinoline], the inhibition at 4 µM was not below 90%. Take `O=C(CN1CCc2cc(-c3cc(F)cc(F)c3)ccc2C1)N1CCN(C2CCCCC2)CC1` [Compound 598, 2-[2-(4-cyclohexylpiperazin-1-yl)-2-oxoethyl]-6-(3,5-difluorophenyl)-1,2,3,4-tetrahydroisoquinoline]: the inhibition at 4 µM was not below 90%.

For `COc1ccc(F)cc1-c1ccc2c(c1)CCN(CC(=O)N1CCN(C3CCC3)CC1)C2` [Compound 570, 2-[2-(4-cyclobutylpiperazin-1-yl)-2-oxoethyl]-6-(5-fluoro-2-methoxyphenyl)-1,2,3,4-tetrahydroisoquinoline], the inhibition at 4 µM is not below 90%.

Regarding `O=C(CN1CCc2cc(-c3ccc(F)cc3F)ccc2C1)N1CCN(C2CCC2)CC1` [Compound 586, 2-[2-(4-cyclobutylpiperazin-1-yl)-2-oxoethyl]-6-(2,4-difluorophenyl)-1,2,3,4-tetrahydroisoquinoline], the inhibition at 4 µM was not below 90%. Same read-out and setting: in the case of `O=C(CN1CCc2cc(-c3cncnc3)ccc2C1)N1C[C@@H]2C[C@H]1CN2C1CCCCC1` (stereo in doubt) [Compound 618, 2-{2-[(1S,4S)-5-cyclohexyl-2,5-diazabicyclo[2.2.1]hept-2-yl]-2-oxoethyl}-6-pyrimidin-5-yl-1,2,3,4-tetrahydroisoquinoline] it was not below 90%. On the same count and under the same terms, in the case of `O=C(CN1CCc2cc(-c3ccc(F)c(F)c3)ccc2C1)N1CCN(C2CCCC2)CC1` [Compound 590, 2-[2-(4-cyclopentylpiperazin-1-yl)-2-oxoethyl]-6-(3,4-difluorophenyl)-1,2,3,4-tetrahydroisoquinoline] it was not below 90%; in that of `COc1ccc(OC)c(-c2ccc3c(c2)CCN(CC(=O)N2CCN(C4CCCCC4)CC2)C3)c1` [Compound 561, 2-[2-(4-cyclohexylpiperazin-1-yl)-2-oxoethyl]-6-(2,5-dimethoxyphenyl)-1,2,3,4-tetrahydroisquinoline], not below 90%. For `CCOc1cccc(-c2ccc3c(c2)CCN(CC(=O)N2CCN(C4CCCCC4)CC2)C3)c1` [Compound 484, 2-[2-(4-cyclohexylpiperazin-1-yl)-2-oxoethyl]-6-(3-ethoxyphenyl)-1,2,3,4-tetrahydroisoquinoline], the inhibition at 4 µM was not below 90%.

Regarding `COc1ccc2cc(-c3ccc4c(c3)CCN(CC(=O)N3CCN(C5CCCCC5)CC3)C4)ccc2c1` [Compound 511, 2-[2-(4-cyclohexylpiperazin-1-yl)-2-oxoethyl]-6-(6-methoxy-2-naphthyl)-1,2,3,4-tetrahydroisoquinoline], the inhibition at 4 µM is not below 90%. Turning to `CC1CCCC1N1C[C@@H]2C[C@H]1CN2C(=O)CN1CCc2cc(-c3cncnc3)ccc2C1` (stereo in doubt) [Compound 615, 2-{2-[(1S,4S)-5-(2-methylcyclopentyl)-2,5-diazabicyclo[2.2.1]hept-2-yl]-2-oxoethyl}-6-pyrimidin-5-yl-1,2,3,4-tetrahydroisoquinoline], the inhibition at 4 µM was not below 90%. As to `CSc1cccc(-c2ccc3c(c2)CCN(CC(=O)N2CCN(C(C)C)CC2)C3)c1` [Compound 497, 2-[2-(4-isopropylpiperazin-1-yl)-2-oxoethyl]-6-[3-(methylthio)phenyl]-1,2,3,4-tetrahydroisoquinoline], the inhibition at 4 µM is not below 90%. Still for that read-out and setting: in the case of `O=C(CN1CCc2cc(-c3ccccc3Oc3ccccc3)ccc2C1)N1CCN(C2CCC2)CC1` [Compound 575, 2-[2-(4-cyclobutylpiperazin-1-yl)-2-oxoethyl]-6-(2-phenoxyphenyl)-1,2,3,4-tetrahydroisoquinoline] it was not below 90%; in that of `O=C(CN1CCc2cc(-c3ccccc3Oc3ccccc3)ccc2C1)N1CCN(C2CCCC2)CC1` [Compound 576, 2-[2-(4-cyclopentylpiperazin-1-yl)-2-oxoethyl]-6-(2-phenoxyphenyl)-1,2,3,4-tetrahydroisoquinoline], not below 90%.

With `COc1ccc(Cl)cc1-c1ccc2c(c1)CCN(CC(=O)N1CCN(C3CCC3)CC1)C2` [Compound 557, 6-(5-chloro-2-methoxyphenyl)-2-[2-(4-cyclobutylpiperazin-1-yl)-2-oxoethyl]-1,2,3,4-tetrahydroisoquinoline], the inhibition at 4 µM is not below 90%. Regarding `O=C(CN1CCc2cc(-c3ccccc3Oc3ccccc3)ccc2C1)N1CCN(C2CCCCC2)CC1` [Compound 577, 2-[2-(4-cyclohexylpiperazin-1-yl)-2-oxoethyl]-6-(2-phenoxyphenyl)-1,2,3,4-tetrahydroisoquinoline], the inhibition at 4 µM is not below 90%. On the same count and under the same terms, in the case of `O=C(CN1CCc2cc(-c3cc(F)cc(F)c3)ccc2C1)N1CCN(C2CCC2)CC1` [Compound 596, 2-[2-(4-cyclobutylpiperazin-1-yl)-2-oxoethyl]-6-(3,5-difluorophenyl)-1,2,3,4-tetrahydroisoquinoline] it was not below 90%; in that of `COc1ccc(-c2ccc3c(c2)CCN(CC(=O)N2CCN(C4CCCCC4)CC2)C3)cc1C` [Compound 542, 2-[2-(4-cyclohexylpiperazin-1-yl)-2-oxoethyl]-6-(4-methoxy-3-methylphenyl)-1,2,3,4-tetrahydroisoquinoline], not below 90%.

For the compound `CCOc1ccccc1-c1ccc2c(c1)CCN(CC(=O)N1CCN(C3CCC3)CC1)C2` [Compound 566, 2-[2-(4-cyclobutylpiperazin-1-yl)-2-oxoethyl]-6-(2-ethoxyphenyl)-1,2,3,4-tetrahydroisoquinoline], the inhibition at 4 µM was not below 90%. In the case of `O=C(CN1CCc2cc(-c3cccc(F)c3F)ccc2C1)N1CCN(C2CCCCC2)CC1` [Compound 601, 2-[2-(4-cyclohexylpiperazin-1-yl)-2-oxoethyl]-6-(2,3-difluorophenyl)-1,2,3,4-tetrahydroisoquinoline], the inhibition at 4 µM was not below 90%.
